How the values were obtained:
Format in all cases: cell-based, human
[1] = tested on: ZR75 EpiR (epirubicin-resistant ZR-75-1 cells); assay: HDAC inhibitor cytotoxicity, CellTiter-Glo viability; details: 72 h, in the presence of selection dose of epirubicin (10 nM)
Method: (§1) All inhibitors were provided by the Drug Discovery group at the Ontario Institute for Cancer Research (OICR, Toronto, Canada). Cells were seeded at 1000-1500 cells/well into 384-well plates (Greiner, Mississauga, Canada). […] After 72 h, the effects of inhibitors were determined using CellTiter-Glo Luminescent Cell Viability Assay (Promega, Madison, USA) and the Wallac EnVision 2104 Multilabel Reader (Perkin-Elmer, Woodbridge, Canada). Raw data were normalized to negative (media) and positive (20 μM staurosporine) controls and analyzed in GraphPad Prism5.

[2] = tested on: ZR75 Nat (native ZR-75-1 cells); assay: as above
Method: as §1

[3] = tested on: SKBR3 Nat (native SKBR3 cells); assay: as above
Method: as §1

[4] = tested on: MCF7 EpiR (epirubicin-resistant MCF7 cells); assay: as above; details: for IC50: 72 h, CellTiter-Glo, in the presence of selection dose of epirubicin (30 nM)
Method: as §1

[5] = tested on: MCF7 Nat (native MCF7 cells); assay: as above
Method: as §1

[6] = tested on: 231 Nat (native MDA-MB-231 cells); assay: as above
Method: as §1

[7] = tested on: SKBR3 EpiR (epirubicin-resistant SKBR3 cells); assay: as above; details: for IC50: 72 h, CellTiter-Glo, in the presence of selection dose of epirubicin (15 nM)
Method: as §1

[8] = tested on: 231 EpiR (epirubicin-resistant MDA-MB-231 cells); assay: as above; details: for IC50: 72 h, CellTiter-Glo, in the presence of selection dose of epirubicin (25 nM)
Method: as §1

[9] = tested on: ZR-75-1 epirubicin-resistant cells; assay: Cross resistance, CCK-8 viability; details: ZR-75-1, 72 h
Method: (§2) Native and resistant cells were exposed to drug concentrations ranging from 0.3 nM to 3000 nM. Cell viability was determined 72 h later by CCK-8 assay. A) Percent of live cells relative to DMSO control was plotted against epirubicin concentration. Black=native cells, magenta=resistant cells. B) IC50 values in nM concentration±standard deviation. Resistance factor is shown in parenthesis and represents resistant IC50/native IC50.
(§3) Breast cancer cell lines (MDA-MB-231, MCF7, ZR-75-1, SKBR3) were purchased from ATCC and cultured in DMEM (except SKBR3, cultured in RPMI) supplemented with 10% heat-inactivated fetal bovine serum and 1% L-glutamine (Gibco, Burlington, Canada). Epirubicin-resistant cell lines were generated by exposing native cells to increasing concentrations of epirubicin with an initial concentration set at 0.5 nM. Resistance was defined when IC50 value superseded the IC50 value of the corresponding native cell line, and resistant cells could not tolerate further increase in drug concentration. Drug resistance and cross resistance were determined by exposing cells to drug concentrations ranging from 0.3-3000 nM for 72 h. Cell viability was determined by Cell Counting Kit-8 (CCK-8, Dojindo, Cedarlane, Burlington, Canada). IC50 were calculated in GraphPad Prism5.

[10] = tested on: MDA-MB-231 epirubicin-resistant cells; assay: Cross resistance, CCK-8 viability; details: MDA-MB-231, 72 h
Method: as §2, §3

[11] = tested on: SKBR3 epirubicin-resistant cells; assay: Cross resistance, CCK-8 viability; details: SKBR3, 72 h
Method: as §2, §3

[12] = tested on: MCF7 epirubicin-resistant cells; assay: Cross resistance, CCK-8 viability; details: MCF7, 72 h
Method: as §2, §3

[13] = tested on: all four epirubicin-resistant cell lines (MDA-MB-231, MCF7, SKBR3, ZR-75-1); assay: Drug resistance and cross resistance, CCK-8 viability; details: 72 h
Method: as §2, §3

| Compound | IC50 [1] | IC50 [4] | IC50 [7] | IC50 [8] | IC50 ([2]; Homo sapiens, ZR75, 72 h) | IC50 ([3]; Homo sapiens, SK-BR-3, 72 h) | IC50 ([5]; Homo sapiens, MCF7, 72 h) | IC50 ([6]; Homo sapiens, MDA-MB-231, 72 h) | further results |
| --- | --- | --- | --- | --- | --- | --- | --- | --- | --- |
| CCC(=O)CCCCC[C@@H]1NC(=O)[C@H]2CCCCN2C(=O)[C@H]([C@@H](C)CC)NC(=O)[C@H](Cc2cn(OC)c3ccccc23)NC1=O | 250 nM | 110 nM | 2210 nM | 110 nM | – | – | – | – | IC50 ([2]; 72 h): 210 nM; IC50 ([3]; 72 h): 170 nM; IC50 ([5]; 72 h): 70 nM; IC50 ([6]; 72 h): 230 nM |
| CN(C)Cc1c(C(=O)NCCOc2ccc(C(=O)NO)cc2)oc2ccccc12 [Abexinostat] | 160 nM | 90 nM | 2250 nM | 120 nM | 140 nM | 210 nM | 110 nM | 270 nM | – |
| O=C(/C=C/c1cccc(S(=O)(=O)Nc2ccccc2)c1)NO [Belinostat] | 460 nM | 200 nM | 150 nM | 180 nM | 360 nM | 210 nM | 250 nM | 500 nM | – |
| CC(C)(C)OC(=O)Nc1ccc(-c2cc(C(=O)NCCCCCCC(=O)NO)no2)cc1 [CAY10603] | 750 nM | 380 nM | 1030 nM | 820 nM | – | – | – | – | IC50 ([2]; 72 h): 980 nM; IC50 ([3]; 72 h): 440 nM; cytotoxicity for epirubicin-resistant cells compared to native cell lines ([4]; MCF7, with epirubicin): more cytotoxic; IC50 ([5]; 72 h): 610 nM; IC50 ([6]; 72 h): 1270 nM |
| O=C(/C=C/c1cccc(C(=O)NO)c1)NO [CBHA] | 2250 nM | 3580 nM | 1030 nM | 1750 nM | – | – | – | – | IC50 ([2]; 72 h): 2940 nM; IC50 ([3]; 72 h): 1450 nM; IC50 ([5]; 72 h): 1180 nM; IC50 ([6]; 72 h): 2390 nM |
| O=C(/C=C/c1ccc(CN(CCO)CCc2c[nH]c3ccccc23)cc1)NO [Dacinostat] | 20 nM | 10 nM | 60 nM | 20 nM | 20 nM | 20 nM | 20 nM | 40 nM | – |
| CCN(CC)Cc1ccc2cc(COC(=O)Nc3ccc(C(=O)NO)cc3)ccc2c1 [Givinostat] | 180 nM | 80 nM | 2740 nM | 160 nM | 170 nM | 220 nM | 100 nM | 260 nM | – |
| Nc1ccccc1NC(=O)c1ccc(CNc2nccc(-c3cccnc3)n2)cc1 [Mocetinostat] | 430 nM | 410 nM | 3690 nM | 430 nM | 350 nM | 1000 nM | 320 nM | 850 nM | – |
| Cc1[nH]c2ccccc2c1CCNCc1ccc(/C=C/C(=O)NO)cc1 [Panobinostat] | 20 nM | 10 nM | 70 nM | 10 nM | 10 nM | 20 nM | 10 nM | 20 nM | – |
| CCCCc1nc2cc(/C=C/C(=O)NO)ccc2n1CCN(CC)CC [Pracinostat] | 230 nM | 120 nM | 920 nM | 180 nM | 150 nM | 260 nM | 160 nM | 540 nM | cytotoxicity for epirubicin-resistant cells compared to native cell lines ([8]; MDA-MB-231, with epirubicin): more cytotoxic |
| Cn1cc(CNCC2CCN(c3ncc(C(=O)NO)cn3)CC2)c2ccccc21 [Quisinostat] | 10 nM | 10 nM | 220 nM | 10 nM | 10 nM | 10 nM | 10 nM | 10 nM | – |
| CCc1c2c(nc3ccc(O)cc13)-c1cc3c(c(=O)n1C2)COC(=O)[C@]3(O)CC [SN-38] | – | – | – | – | – | – | – | – | cross-resistance of epirubicin-resistant cells [9]: tolerated only small increases in SN-38 concentrations; cross-resistance of epirubicin-resistant cells [10]: cross-resistant; cross-resistance of epirubicin-resistant cells [11]: cross-resistant; cross-resistance of epirubicin-resistant cells [12]: tolerated only small increases in SN-38 concentrations |
| O=C(CCCCCN1C(=O)c2cccc3cccc(c23)C1=O)NO [Scriptaid] | 1230 nM | 720 nM | 940 nM | 1300 nM | 1660 nM | 1250 nM | 1340 nM | 3810 nM | – |
| CC(/C=C/C(=O)NO)=C\[C@@H](C)C(=O)c1ccc(N(C)C)cc1 [Trichostatin A] | 2280 nM | 500 nM | 1240 nM | 150 nM | – | – | – | – | IC50 ([2]; 72 h): 1830 nM; IC50 ([3]; 72 h): 1520 nM; IC50 ([6]; 72 h): 330 nM |
| N.N.O=C([O-])C1(C(=O)[O-])CCC1.[Pt+2] [carboplatin] | – | – | – | – | – | – | – | – | cross-resistance of epirubicin-resistant cell lines [13]: None of the cell lines were cross-resistant |
| CC(=O)O[C@@]12CO[C@@H]1C[C@H](O)[C@@]1(C)C(=O)[C@H](O)C3=C(C)[C@@H](OC(=O)[C@H](O)[C@@H](NC(=O)OC(C)(C)C)c4ccccc4)C[C@@](O)([C@@H](OC(=O)c4ccccc4)[C@H]21)C3(C)C [docetaxel] | – | – | – | – | – | – | – | – | cross-resistance of epirubicin-resistant cells [9]: not taxane-resistant; cross-resistance of epirubicin-resistant cells [10]: not taxane-resistant; cross-resistance of epirubicin-resistant cells [11]: cross-resistant; cross-resistance of epirubicin-resistant cells [12]: not taxane-resistant |
| COc1cccc2c1C(=O)c1c(O)c3c(c(O)c1C2=O)C[C@@](O)(C(=O)CO)C[C@@H]3O[C@H]1C[C@H](N)[C@H](O)[C@H](C)O1 [doxorubicin] | – | – | – | – | – | – | – | – | cross-resistance of epirubicin-resistant cell lines [13]: resistant |
| CC(=O)O[C@H]1C(=O)[C@@]2(C)[C@H]([C@H](OC(=O)c3ccccc3)[C@]3(O)C[C@H](OC(=O)[C@H](O)[C@@H](NC(=O)c4ccccc4)c4ccccc4)C(C)=C1C3(C)C)[C@]1(OC(C)=O)CO[C@@H]1C[C@@H]2O [paclitaxel] | – | – | – | – | – | – | – | – | cross-resistance of epirubicin-resistant cells [9]: not taxane-resistant; cross-resistance of epirubicin-resistant cells [10]: not taxane-resistant; cross-resistance of epirubicin-resistant cells [11]: cross-resistant; cross-resistance of epirubicin-resistant cells [12]: not taxane-resistant |
| Oxamflatin | 1200 nM | 250 nM | 690 nM | 290 nM | – | – | – | – | IC50 ([2]; 72 h): 680 nM; IC50 ([3]; 72 h): 1280 nM; IC50 ([5]; 72 h): 620 nM; IC50 ([6]; 72 h): 590 nM; cytotoxicity for epirubicin-resistant cells compared to native cell lines ([7]; SKBR3, with epirubicin): more cytotoxic |

From patent publication US20180282819A1, “Targeting the Histone Pathway to Detect and Overcome Anthracyclin Resistance” (ONTARIO INSTITUTE FOR CANCER RESEARCH (OICR), priority 2015, published 2018)
